Assays:
PYL8 = molecular target: T1, PYL8 (Arabidopsis thaliana, UniProt Q9FGM1); assay: Protein dephosphorylation enzyme activity test, PYL8; format: biochemical, thale cress; conditions: control = 100%
T1 construct: 6xHis (N); made in house; host or cells: Escherichia coli BL21-codonplus(DE3)-RIPL (PYL); BL21(DE3)pLysS (HAB1)
T1 sequence (Q9FGM1 1-188): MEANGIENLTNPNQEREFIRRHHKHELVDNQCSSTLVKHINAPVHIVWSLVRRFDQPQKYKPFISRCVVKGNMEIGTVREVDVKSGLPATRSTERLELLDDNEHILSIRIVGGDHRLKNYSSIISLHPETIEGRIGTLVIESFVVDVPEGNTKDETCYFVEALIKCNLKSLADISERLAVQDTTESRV
Description: (§1) A plasmid (pGex-2T-GST-HAB1 or pET28-6×His-PYL) encoded with PYR/PYL/RCAR proteins (PYL, abscisic acid receptor) or protein dephosphorylation enzyme HAB1 of thale cress was transformed to Escherichia coli (HAB1:BL21(DE3)pLysS, PYL:BL21-codonplus(DE3)-RIPL). Isopropyl-β-thiogalactopyranoside was added to the culture broth, which had been subjected to pre-culture (30° C., 180 rpm, 15 hours) and main culture (30° C., 180 rpm, 4 hours), and the protein-expressed (16° C., 150 rpm, 18 hours) crude enzyme solution was purified using FPLC thereby preparing the recombined PYL (PYR1, PYL1-6, PYL8-10) and HAB1. β-Mercaptoethanol, a manganese chloride aqueous solution, HAB1, PYL, a solution of the sample in dimethylsulfoxide and ultrapure water were sequentially added to a 96-well plate, allowed to stand at 22° C. for 30 minutes. Subsequently p-nitrophenylphosphate, which is the artificial substrate of HAB1, was added thereto to start the reaction, and the plate was placed in a microplate reader (TECAN, Infinite™ N200 NanoQuant). The absorbance at 405 nm due to p-nitrophenol, which is the hydrolysate of p-nitrophenylphosphate, was measured 3 minutes later from the reaction initiation, and HAB1 activity was calculated by the following formula (2). Note that the fraction to which only dimethylsulfoxide was added was considered to be the control and the activity thereof was defined as 100%. […] HAB1 specific activity (%)=Absorbance when sample was added/Absorbance of control×100 (2)

recombined PYL5 = molecular target: T2, recombined PYL5 (Arabidopsis thaliana, UniProt Q9FLB1); assay: Bonding affinity measurement using an isothermal titration calorimeter; format: binding, thale cress; conditions: ITC, 20° C., sodium phosphate buffer
T2 construct: 6xHis (N); made in house; host or cells: Escherichia coli BL21-codonplus(DE3)-RIPL
T2 sequence (Q9FLB1 1-203): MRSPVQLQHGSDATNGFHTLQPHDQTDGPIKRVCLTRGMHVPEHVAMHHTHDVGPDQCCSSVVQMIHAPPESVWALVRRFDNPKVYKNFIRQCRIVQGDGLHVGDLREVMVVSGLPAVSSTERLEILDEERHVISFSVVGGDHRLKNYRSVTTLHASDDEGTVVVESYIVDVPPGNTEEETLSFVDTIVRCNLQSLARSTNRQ
Description: A sodium phosphate buffer solution of a recombined PYL5 was prepared in the same procedure as in Test Example 5, and put in a reaction cell of an isothermal titration calorimeter (GE Healthcare, MicroCal iTC200), and a sodium phosphate buffer solution of the compound of Example 1 was put in the syringe. Then, the calorimeter was set to 20° C. and the measurement was carded out. The same measurement as above was also carried out for the compounds of Examples 7 to 9.

[1] = test system: seeds of thale cress (Arabidopsis thaliana, Col-0); assay: Thale cress seed germination test; format: in vivo
Description: Seeds of thale cress (Arabidopsis thaliana, Col-0) were immersed in 500 μL of an aqueous solution of 70% ethanol for 30 minutes, subsequently in 500 μL of a 100% ethanol solution for 1 minute, washed five times in 1 mL of distilled water, then immersed in distilled water and, in a dark place, vernalized at 4° C. for 3 days. A solution of the sample in methanol was put in a 1.5 mL-microtube, and methanol was removed therefrom under reduced pressure. An aqueous solution of 0.5% agar (containing ½ MS medium inorganic salts) at 70° C. was added thereto and stirred, and subsequently the obtained mixture was placed in a 96-well plate to prepare the medium containing the sample. All samples were prepared so as to have a concentration of 3 μM of the compound in Examples 1 to 9 and Comparative Example 1. Further, when ABA is applied, the ABA concentration was adjusted to 0.3 μM. 20 to 30 vernalized seeds of thale cress were planted in each well and cultured at 22° C. under continuous light to monitor the number of seeds germinated over time. The germination rate was calculated by the following formula (1). Note that those cultured in medium prepared using methanol in the same manner were used as controls. […] Germination rate (%)=Number of seeds germinated/Number of seeds planted×100 (1)
The same test was carried out as in Test Example 1 with the concentrations of the compound of Example 1 for treatment varying from 0.3 μM to 30 μM.
Similarly, the same test was carried out with the concentrations of the compound of Example 2 for treatment varying from 0.3 μM to 30 μM.
The same test was carried out as in Test Example 2 with the concentrations of the compounds for treatment varying from 0.3 μM to 3 μM to compare the recovery effects on seed germination rate of the compound of Example 1 and the compound of Comparative Example 1.

PYR1 = molecular target: T3, PYR1 (Arabidopsis thaliana, UniProt O49686); assay: Protein dephosphorylation enzyme activity test, PYR1; format: biochemical, thale cress; conditions: control = 100%
T3 construct: 6xHis (N); made in house; host or cells: Escherichia coli BL21-codonplus(DE3)-RIPL (PYL); BL21(DE3)pLysS (HAB1)
T3 sequence (O49686 1-191): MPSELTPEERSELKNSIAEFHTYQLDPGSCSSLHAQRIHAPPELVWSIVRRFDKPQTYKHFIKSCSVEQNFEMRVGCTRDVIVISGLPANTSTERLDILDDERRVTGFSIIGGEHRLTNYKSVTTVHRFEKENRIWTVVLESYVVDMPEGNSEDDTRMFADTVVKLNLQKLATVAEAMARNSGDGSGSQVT
Description: as §1

PYL10 = molecular target: T4, PYL10 (Arabidopsis thaliana, UniProt Q8H1R0); assay: Protein dephosphorylation enzyme activity test, PYL10; format: biochemical, thale cress; conditions: control = 100%
T4 construct: 6xHis (N); made in house; host or cells: Escherichia coli BL21-codonplus(DE3)-RIPL (PYL); BL21(DE3)pLysS (HAB1)
T4 sequence (Q8H1R0 1-183): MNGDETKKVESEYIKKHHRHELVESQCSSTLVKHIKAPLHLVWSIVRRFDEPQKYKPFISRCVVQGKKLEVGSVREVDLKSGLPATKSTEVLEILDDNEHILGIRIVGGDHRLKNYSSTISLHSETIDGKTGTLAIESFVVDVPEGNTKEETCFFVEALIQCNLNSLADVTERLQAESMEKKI
Description: as §1

[2] = 3 μM compound co-applied with 0.3 μM ABA

CC1=C[C@@H](OCC#Cc2ccccc2)CC(C)(C)[C@@]1(O)/C=C/C(C)=C\C(=O)O [Example 1, (2Z,4E)-5-((1S,4S)-1-hydroxy-2,6,6-trimethyl-4-((3-phenylprop-2-yn-1-yl)oxy)cyclohex-2-en-1-yl)-3-methylpenta-2,4-dienoic acid]
HAB1 Specific activity (%) PYL8 (PYL8; ABA + compound): 76.9% | HAB1 Specific activity (%) PYL8 (PYL8; sample alone): 105% | Kd (recombined PYL5): 70 ± 20 nM | ΔG (recombined PYL5): -9.6 ± 0.1 kcal/mol | ΔH (recombined PYL5): -7.9 ± 0.1 kcal/mol | −TΔS (recombined PYL5): -1.7 kcal/mol | Germination rate (%) 24 Hours later [1, 2]: 0% | Germination rate (%) 36 Hours later [1, 2]: 79% | Germination rate (%) 48 Hours later [1, 2]: 100% | Germination rate (%) 60 Hours later [1, 2]: 100% | Recovery of seed germination rate decreased by ABA ([1]; compound 0.3 μM to 30 μM co-applied with ABA): seed germination rates decreased by ABA are recovered | Germination rate (%) 24 Hours later ([1]; compound alone, 3 μM): 0% | Germination rate (%) 36 Hours later ([1]; compound alone, 3 μM): 86% | Germination rate (%) 48 Hours later ([1]; compound alone, 3 μM): 100% | Germination rate (%) 60 Hours later ([1]; compound alone, 3 μM): 100% | Recovery effect on seed germination rate, comparison ([1]; compounds 0.3 μM to 3 μM, co-applied with ABA): excels in the recovery effect on seed germination rate more than the compound of Comparative Example 1 | HAB1 Specific activity (%) PYR1 (PYR1; ABA + compound): 49% | HAB1 Specific activity (%) PYR1 (PYR1; sample alone): 99.6% | HAB1 Specific activity (%) PYL10 (PYL10; ABA + compound): 90.7% | HAB1 Specific activity (%) PYL10 (PYL10; sample alone): 93.7%

CC1=C[C@@H](OCC#Cc2ccc(C)cc2)CC(C)(C)[C@@]1(O)/C=C/C(C)=C\C(=O)O [Example 7]
HAB1 Specific activity (%) PYL8 (PYL8; ABA + compound): 98.7% | HAB1 Specific activity (%) PYL8 (PYL8; sample alone): 98.5% | Kd (recombined PYL5): 70 ± 20 nM | ΔG (recombined PYL5): -9.6 ± 0.2 kcal/mol | ΔH (recombined PYL5): -5.5 ± 0.1 kcal/mol | −TΔS (recombined PYL5): -4.2 kcal/mol | Germination rate (%) 24 Hours later [1, 2]: 0% | Germination rate (%) 36 Hours later [1, 2]: 76% | Germination rate (%) 48 Hours later [1, 2]: 100% | Germination rate (%) 60 Hours later [1, 2]: 100% | Germination rate (%) 24 Hours later ([1]; compound alone, 3 μM): 0% | Germination rate (%) 36 Hours later ([1]; compound alone, 3 μM): 86% | Germination rate (%) 48 Hours later ([1]; compound alone, 3 μM): 100% | Germination rate (%) 60 Hours later ([1]; compound alone, 3 μM): 100% | HAB1 Specific activity (%) PYR1 (PYR1; ABA + compound): 62.6% | HAB1 Specific activity (%) PYR1 (PYR1; sample alone): 95.7% | HAB1 Specific activity (%) PYL10 (PYL10; ABA + compound): 82.5% | HAB1 Specific activity (%) PYL10 (PYL10; sample alone): 99.0%

CC1=CC(=O)CC(C)(C)[C@@]1(O)/C=C/C(C)=C\C(=O)O [ABA, abscisic acid]
HAB1 Specific activity (%) PYL8 (PYL8; sample alone): 13.9% | Kd (recombined PYL5): 880 ± 110 nM | ΔG (recombined PYL5): -8.1 ± 0.1 kcal/mol | ΔH (recombined PYL5): -7.8 ± 0.1 kcal/mol | −TΔS (recombined PYL5): -0.3 kcal/mol | Germination rate (%) 24 Hours later ([1]; ABA alone, 0.3 μM): 0% | Germination rate (%) 36 Hours later ([1]; ABA alone, 0.3 μM): 0% | Germination rate (%) 48 Hours later ([1]; ABA alone, 0.3 μM): 16.2% | Germination rate (%) 60 Hours later ([1]; ABA alone, 0.3 μM): 32.6% | HAB1 Specific activity (%) PYR1 (PYR1; sample alone): 18.6% | HAB1 Specific activity (%) PYL10 (PYL10; sample alone): 16.2%
